Series [1] has as its system MPO release, human whole blood. Description: In vitro MPO release in human whole blood after ionomycin stimulation. It is filed as cell-based. How it is done:
Neutrophils and other cells in human whole blood respond in vitro to activation by a calcium ionophore (e.g., ionomycin), with an increase in LTB4 production and with coupled release of MPO stimulated in part by LTB4 production in the assay. The effect of DG-031 on the capacity for production of LTB4 in vitro after ionomycin stimulation was evaluated at concentrations ranging from 0.1 μM up to 240 μM.
Blood samples collected from the clinical study described in Example 2 were evaluated assuming that the ex vivo response profile in clinical samples parallels the in vitro response over the entire concentration range, 250 mg TID dosing which maintains concentrations above 2-3 μg/ml (˜7 μM) should maintain a 30% or greater reduction of capacity for LTB4 production at all times. Peak concentrations of DG-031 with 250 mg TID dosing were about 10 μg/ml (28 μM) and should be associated with about 65% reduction of capacity for LTB4 production. The typical patient's pharmacodynamic response was expected to fluctuate between 30% and 65% reduction of capacity for LTB4 production over the course of a dosing interval.

Series [2] in a line: Clinical studies in CAD patients: safety and tolerability. The format is in vivo, human. How it is done:
Previous clinical studies administered the dosages of DG-031 either in a single dose (QD) or twice a day (BID)
A total daily dose of 750 mg, dosed at 250 mg TID, provides a preferable PK/PD relationship (inhibition of LTB4) and efficacy in terms of lowering other biomarkers of MI risk (i.e. MPO and CRP). In addition, a total daily dose of 1000 mg, dosed at 500 mg BID, also provides a preferable PK and PD time course (inhibition of LTB4) and efficacy in terms of lowering other biomarkers of MI risk (i.e. MPO). Patient compliance is an important consideration when designing a dosing schedule and patients are more likely to comply with a twice a day dosing (BID) than three times a day doing (TID).

Series [3] can be described thus: Study DG-031-204: liver function tests (AST, ALT, GGT). The format is in vivo, human. As to conditions: 500 mg BID or TID. How it is done: (§1) An additional single site, open label study was carried out to obtain biomarker and safety data on additional DG-031 doses (i.e., 1000 mg and 1500 mg). This study examined the safety, tolerability and dose-related effects of DG-031 on inflammatory biomarkers including: LTB4, hsCRP, and MPO. A total of 119 patients with a prior history of CAD and MI were randomized to receive either 1000 mg DG-031 (500 mg BID) or 1500 mg DG-031 (500 mg TID) daily for 4-6 weeks. Treatment with DG-031 in addition to the subject's standard care, medication, and treatment, was prescribed by the patient's cardiologist. A majority of the subjects received statin therapy before, during and after the study. Follow-up assessments were performed 2 weeks after the end of study drug administration.
(§2) Liver function tests (AST, ALT, GGT) were assessed weekly during study drug administration and two weeks after dosing. […] Serum creatinine (Cr) was measured weekly during study drug administration and two weeks after dosing. In both the 500 mg BID and 500 mg TID treatment groups, mean serum Cr concentrations increased 4-5% relative to baseline levels. At the 2-week follow up visit, mean serum Cr returned to baseline in the cohort treated for 4 weeks, but remained elevated in the group treated for 6 weeks. Creatine kinase (CK) measurements were obtained weekly during study drug administration and two weeks after dosing.

Series [4] is described as follows: Study DG-031-204: serum creatinine. The format is in vivo, human. The note with it: both 500 mg BID and 500 mg TID groups. How it is done:
as §1, §2

The conditions of series [5]: asthma patients, cited from earlier work.

Several values for one entry are separate records, joined by “and”; a condition that tells them apart may be missing. Equal values may be shown once. Read-outs that look alike come from different tables or passages of the source.

Take `O=C(O)[C@@H](c1ccc(OCc2ccc3ccccc3n2)cc1)C1CCCC1` [DG-031, (R)-(+)-alpha-cyclopentyl-4-(2-quinolinylmethoxy)-Benzeneacetic acid]: in series [1], the “Concentration at which MPO release is maximally inhibited in vitro” value is “about 6 μM and ~2 μg/ml”. Further, the Safety and tolerability entry in series [2] (250 mg QD, 375 mg QD, 250 mg BID, 375 mg BID, 250 mg TID) was “safe and well tolerated”; in series [2] (total daily doses 250, 500, 750 mg, 128 days), “safe and well tolerated”; in series [5] (total daily dose 250-1000 mg, 14 days) it was “safe and well tolerated”; in series [5] (total daily doses 100-1000 mg, 14-42 days) it was “safe and well tolerated”. Also, the “Mean liver function tests (AST, ALT, GGT)” value in series [3] is given as “No adverse trends”. In addition, the “Increase of mean serum Cr concentrations relative to baseline” value in series [4] is recorded as 4-5%.

The record behind these values is patent publication US20090030037A1, “Sustained Release Formulation and Dosing Schedules of Leukotriene Synthesis Inhibitor for Human Therapy” (deCODE Genetics ehf., priority 2005, published 2009).
